Laboratory results: the NIST ThermoML archive (doi:10.1021/je200721d)
Numbers after ± are expanded uncertainties.

Experiment: xn = mol fraction of the nth substance listed
Conditions: Liquid, Vibrating tube method

Structure (SMILES): CCCCCCCCCC [decane] + CCCCCC
- mass density (323.14 K, 13000 kPa, x2 = 0.2185): 707.88 ± 0.34 kg/m3
- mass density (323.14 K, 13000 kPa, x2 = 0.4968): 691.97 ± 0.36 kg/m3
- mass density (323.14 K, 14000 kPa, x2 = 0.0456): 717.02 ± 0.34 kg/m3
- mass density (323.14 K, 14000 kPa, x2 = 0.2185): 708.71 ± 0.35 kg/m3
- mass density (323.14 K, 14000 kPa, x2 = 0.4968): 692.85 ± 0.36 kg/m3
- mass density (323.14 K, 15000 kPa, x2 = 0.0456): 717.82 ± 0.35 kg/m3
- mass density (323.14 K, 15000 kPa, x2 = 0.2185): 709.54 ± 0.36 kg/m3
- mass density (323.14 K, 15000 kPa, x2 = 0.4968): 693.71 ± 0.37 kg/m3
- mass density (323.14 K, 16000 kPa, x2 = 0.0456): 718.6 ± 0.36 kg/m3
- mass density (323.14 K, 16000 kPa, x2 = 0.2185): 710.33 ± 0.37 kg/m3
- mass density (323.14 K, 16000 kPa, x2 = 0.4968): 694.57 ± 0.38 kg/m3
- mass density (323.14 K, 17000 kPa, x2 = 0.0456): 719.38 ± 0.37 kg/m3
- mass density (323.14 K, 17000 kPa, x2 = 0.2185): 711.14 ± 0.37 kg/m3
- mass density (323.14 K, 17000 kPa, x2 = 0.4968): 695.4 ± 0.39 kg/m3
- mass density (323.14 K, 18000 kPa, x2 = 0.0456): 720.14 ± 0.37 kg/m3
- mass density (323.14 K, 18000 kPa, x2 = 0.2185): 711.93 ± 0.38 kg/m3
- mass density (323.14 K, 18000 kPa, x2 = 0.4968): 696.25 ± 0.4 kg/m3
- mass density (323.14 K, 19000 kPa, x2 = 0.0456): 720.9 ± 0.38 kg/m3
- mass density (323.14 K, 19000 kPa, x2 = 0.2185): 712.7 ± 0.39 kg/m3
- mass density (323.14 K, 19000 kPa, x2 = 0.4968): 697.05 ± 0.41 kg/m3
- mass density (323.14 K, 20000 kPa, x2 = 0.0456): 721.64 ± 0.39 kg/m3
- mass density (323.14 K, 20000 kPa, x2 = 0.2185): 713.47 ± 0.4 kg/m3
- mass density (323.14 K, 20000 kPa, x2 = 0.4968): 697.87 ± 0.42 kg/m3
- mass density (323.14 K, 21000 kPa, x2 = 0.0456): 722.37 ± 0.4 kg/m3
- mass density (323.14 K, 21000 kPa, x2 = 0.2185): 714.23 ± 0.41 kg/m3
- mass density (323.14 K, 21000 kPa, x2 = 0.4968): 698.66 ± 0.42 kg/m3
- mass density (323.14 K, 22000 kPa, x2 = 0.0456): 723.1 ± 0.4 kg/m3
- mass density (323.14 K, 22000 kPa, x2 = 0.2185): 714.97 ± 0.41 kg/m3
- mass density (323.14 K, 22000 kPa, x2 = 0.4968): 699.42 ± 0.43 kg/m3
- mass density (323.14 K, 23000 kPa, x2 = 0.0456): 723.81 ± 0.41 kg/m3
- mass density (323.14 K, 23000 kPa, x2 = 0.2185): 715.7 ± 0.42 kg/m3
- mass density (323.14 K, 23000 kPa, x2 = 0.4968): 700.17 ± 0.44 kg/m3
- mass density (323.14 K, 24000 kPa, x2 = 0.0456): 724.52 ± 0.42 kg/m3
- mass density (323.14 K, 24000 kPa, x2 = 0.2185): 716.43 ± 0.43 kg/m3
- mass density (323.14 K, 24000 kPa, x2 = 0.4968): 700.91 ± 0.45 kg/m3
- mass density (323.14 K, 25000 kPa, x2 = 0.0456): 725.21 ± 0.43 kg/m3
- mass density (323.14 K, 25000 kPa, x2 = 0.2185): 717.13 ± 0.44 kg/m3
- mass density (323.14 K, 25000 kPa, x2 = 0.4968): 701.65 ± 0.46 kg/m3
- mass density (323.16 K, 1000 kPa, x2 = 0.7524): 659.51 ± 0.27 kg/m3
- mass density (323.16 K, 2000 kPa, x2 = 0.7524): 660.73 ± 0.28 kg/m3
- mass density (323.16 K, 3000 kPa, x2 = 0.7524): 661.92 ± 0.29 kg/m3
- mass density (323.16 K, 4000 kPa, x2 = 0.7524): 663.04 ± 0.29 kg/m3
- mass density (323.16 K, 5000 kPa, x2 = 0.7524): 664.17 ± 0.3 kg/m3
- mass density (323.16 K, 6000 kPa, x2 = 0.7524): 665.29 ± 0.31 kg/m3
- mass density (323.16 K, 7000 kPa, x2 = 0.7524): 666.38 ± 0.32 kg/m3
- mass density (323.16 K, 8000 kPa, x2 = 0.7524): 667.43 ± 0.33 kg/m3
- mass density (323.16 K, 9000 kPa, x2 = 0.7524): 668.5 ± 0.34 kg/m3
- mass density (323.16 K, 10000 kPa, x2 = 0.7524): 669.53 ± 0.34 kg/m3
- mass density (323.16 K, 10990 kPa, x2 = 0.7524): 670.57 ± 0.35 kg/m3
- mass density (323.16 K, 12000 kPa, x2 = 0.7524): 671.56 ± 0.36 kg/m3
- mass density (323.16 K, 13000 kPa, x2 = 0.7524): 672.52 ± 0.37 kg/m3
- mass density (323.16 K, 14000 kPa, x2 = 0.7524): 673.49 ± 0.38 kg/m3
- mass density (323.16 K, 15000 kPa, x2 = 0.7524): 674.44 ± 0.39 kg/m3
- mass density (323.16 K, 16000 kPa, x2 = 0.7524): 675.39 ± 0.4 kg/m3
- mass density (323.16 K, 17000 kPa, x2 = 0.7524): 676.32 ± 0.41 kg/m3
- mass density (323.16 K, 18000 kPa, x2 = 0.7524): 677.22 ± 0.42 kg/m3
- mass density (323.16 K, 19000 kPa, x2 = 0.7524): 678.11 ± 0.43 kg/m3
- mass density (323.16 K, 20000 kPa, x2 = 0.7524): 678.99 ± 0.44 kg/m3
- mass density (323.16 K, 21000 kPa, x2 = 0.7524): 679.85 ± 0.44 kg/m3
- mass density (323.16 K, 22000 kPa, x2 = 0.7524): 680.67 ± 0.45 kg/m3
- mass density (323.16 K, 23000 kPa, x2 = 0.7524): 681.51 ± 0.46 kg/m3
- mass density (323.16 K, 24000 kPa, x2 = 0.7524): 682.33 ± 0.47 kg/m3
- mass density (323.16 K, 25000 kPa, x2 = 0.7524): 683.11 ± 0.48 kg/m3
- mass density (332.58 K, 1000 kPa, x2 = 0.4968): 671.98 ± 0.27 kg/m3
- mass density (332.58 K, 2000 kPa, x2 = 0.4968): 673.11 ± 0.27 kg/m3
- mass density (332.58 K, 3000 kPa, x2 = 0.4968): 674.24 ± 0.28 kg/m3
- mass density (332.58 K, 4000 kPa, x2 = 0.4968): 675.37 ± 0.29 kg/m3
- mass density (332.58 K, 5000 kPa, x2 = 0.4968): 676.46 ± 0.29 kg/m3
- mass density (332.58 K, 6000 kPa, x2 = 0.4968): 677.53 ± 0.3 kg/m3
- mass density (332.58 K, 7000 kPa, x2 = 0.4968): 678.61 ± 0.31 kg/m3
- mass density (332.58 K, 8000 kPa, x2 = 0.4968): 679.66 ± 0.32 kg/m3
- mass density (332.58 K, 9000 kPa, x2 = 0.4968): 680.68 ± 0.33 kg/m3
- mass density (332.58 K, 10000 kPa, x2 = 0.4968): 681.7 ± 0.34 kg/m3
- mass density (332.58 K, 10990 kPa, x2 = 0.4968): 682.69 ± 0.34 kg/m3
- mass density (332.58 K, 12000 kPa, x2 = 0.4968): 683.66 ± 0.35 kg/m3
- mass density (332.58 K, 13000 kPa, x2 = 0.4968): 684.64 ± 0.36 kg/m3
- mass density (332.58 K, 14000 kPa, x2 = 0.4968): 685.59 ± 0.37 kg/m3
- mass density (332.58 K, 15000 kPa, x2 = 0.4968): 686.54 ± 0.38 kg/m3
- mass density (332.58 K, 16000 kPa, x2 = 0.4968): 687.44 ± 0.39 kg/m3
- mass density (332.58 K, 17000 kPa, x2 = 0.4968): 688.35 ± 0.4 kg/m3
- mass density (332.58 K, 18000 kPa, x2 = 0.4968): 689.24 ± 0.4 kg/m3
- mass density (332.58 K, 19000 kPa, x2 = 0.4968): 690.12 ± 0.41 kg/m3
- mass density (332.58 K, 20000 kPa, x2 = 0.4968): 690.99 ± 0.42 kg/m3
- mass density (332.58 K, 21000 kPa, x2 = 0.4968): 691.85 ± 0.43 kg/m3
- mass density (332.58 K, 22000 kPa, x2 = 0.4968): 692.69 ± 0.44 kg/m3
- mass density (332.58 K, 23000 kPa, x2 = 0.4968): 693.52 ± 0.45 kg/m3
- mass density (332.58 K, 24000 kPa, x2 = 0.4968): 694.34 ± 0.46 kg/m3
- mass density (332.58 K, 25000 kPa, x2 = 0.4968): 695.13 ± 0.47 kg/m3
- mass density (332.93 K, 1000 kPa, x2 = 0.8991): 636.12 ± 0.28 kg/m3
- mass density (332.93 K, 2000 kPa, x2 = 0.8991): 637.35 ± 0.29 kg/m3
- mass density (332.93 K, 3000 kPa, x2 = 0.8991): 638.61 ± 0.29 kg/m3
- mass density (332.93 K, 4000 kPa, x2 = 0.8991): 639.84 ± 0.3 kg/m3
- mass density (332.93 K, 5000 kPa, x2 = 0.8991): 641.09 ± 0.31 kg/m3
- mass density (332.93 K, 6000 kPa, x2 = 0.8991): 642.3 ± 0.32 kg/m3
